Reference: patent US9815796B2 (Merck Sharp & Dohme Corp., priority 2013, dated 2017)
Where two headings read alike, the source gives them in different places.

Assays:
human PDE2A1 = human PDE2A1 (Homo sapiens (Human), UniProt O00408); experiment: IMAP FP PDE selectivity panel, human PDE2A1; format: biochemical
Procedure, shortened: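 IMAP FP format: substrate 50 nM FAM-cAMP plus 1000 nM cGMP, enzyme (insect-cell GST-tagged human PDE2A1) at ~20% conversion, 60 min reaction at room temperature. Apparent inhibition constants calculated from parallel/perpendicular fluorescence with KM 10,000 nM.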

Rhesus PDE2A3 = Rhesus PDE2A3 (Macaca mulatta, UniProt B3VTJ2); experiment: PDE2 fluorescence polarization (IMAP FP) inhibition assay, rhesus enzyme; format: biochemical, rhesus macaque
Chain of Rhesus PDE2A3 (B3VTJ2 1-941): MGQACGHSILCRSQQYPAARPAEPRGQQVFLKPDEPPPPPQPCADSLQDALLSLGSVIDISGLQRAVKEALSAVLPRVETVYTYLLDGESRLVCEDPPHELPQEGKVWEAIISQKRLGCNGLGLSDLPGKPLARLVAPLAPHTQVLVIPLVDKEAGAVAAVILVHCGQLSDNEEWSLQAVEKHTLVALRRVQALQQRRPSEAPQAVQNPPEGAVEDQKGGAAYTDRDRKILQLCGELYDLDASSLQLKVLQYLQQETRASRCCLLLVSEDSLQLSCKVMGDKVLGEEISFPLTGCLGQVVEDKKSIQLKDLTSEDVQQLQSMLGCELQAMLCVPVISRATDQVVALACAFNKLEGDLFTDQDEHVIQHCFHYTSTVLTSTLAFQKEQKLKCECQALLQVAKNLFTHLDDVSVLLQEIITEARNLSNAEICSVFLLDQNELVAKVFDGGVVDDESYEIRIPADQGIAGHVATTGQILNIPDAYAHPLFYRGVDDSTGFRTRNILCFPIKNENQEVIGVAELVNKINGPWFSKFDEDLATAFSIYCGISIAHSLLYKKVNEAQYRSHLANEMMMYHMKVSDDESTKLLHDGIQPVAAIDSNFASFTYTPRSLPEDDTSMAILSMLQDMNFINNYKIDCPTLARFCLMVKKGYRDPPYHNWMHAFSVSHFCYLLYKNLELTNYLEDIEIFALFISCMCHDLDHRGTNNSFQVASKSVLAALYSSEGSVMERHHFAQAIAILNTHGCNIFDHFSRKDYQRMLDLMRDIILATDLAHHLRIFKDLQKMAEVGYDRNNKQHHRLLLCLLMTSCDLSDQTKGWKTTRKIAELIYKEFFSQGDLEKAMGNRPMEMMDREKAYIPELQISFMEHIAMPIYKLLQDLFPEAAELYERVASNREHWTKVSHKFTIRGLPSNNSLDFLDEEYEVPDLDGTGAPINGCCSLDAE
Procedure, shortened: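 IMAP FP (mP from parallel and perpendicular fluorescence against substrate-only control) was read ≥1 h after adding binding reagent. The preceding 60 min room-temperature reaction contained FAM-cAMP (50 nM) and cGMP (1 uM) in pH 7.2 Tris buffer with MgCl2 and DTT. Enzyme was supernatant of sonicated AD293 cells expressing rhesus PDE2A3; compounds were 3-fold titrated, DMSO 1% final.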

[1] = Human PDE2, Lab A, read-out: Human PDE2 Ki (nM) - Lab A
[2] = Rhesus PDE2, Lab A, read-out: Rhesus PDE2 Ki (nM) - Lab A
[3] = Human PDE2, Lab B, read-out: Human PDE2 Ki (nM) - Lab B
[4] = Rhesus PDE2, Lab B, read-out: Rhesus PDE2 Ki (nM) - Lab B

Chain of human PDE2A1 (O00408 other isoform, or with tags, fused parts or gaps): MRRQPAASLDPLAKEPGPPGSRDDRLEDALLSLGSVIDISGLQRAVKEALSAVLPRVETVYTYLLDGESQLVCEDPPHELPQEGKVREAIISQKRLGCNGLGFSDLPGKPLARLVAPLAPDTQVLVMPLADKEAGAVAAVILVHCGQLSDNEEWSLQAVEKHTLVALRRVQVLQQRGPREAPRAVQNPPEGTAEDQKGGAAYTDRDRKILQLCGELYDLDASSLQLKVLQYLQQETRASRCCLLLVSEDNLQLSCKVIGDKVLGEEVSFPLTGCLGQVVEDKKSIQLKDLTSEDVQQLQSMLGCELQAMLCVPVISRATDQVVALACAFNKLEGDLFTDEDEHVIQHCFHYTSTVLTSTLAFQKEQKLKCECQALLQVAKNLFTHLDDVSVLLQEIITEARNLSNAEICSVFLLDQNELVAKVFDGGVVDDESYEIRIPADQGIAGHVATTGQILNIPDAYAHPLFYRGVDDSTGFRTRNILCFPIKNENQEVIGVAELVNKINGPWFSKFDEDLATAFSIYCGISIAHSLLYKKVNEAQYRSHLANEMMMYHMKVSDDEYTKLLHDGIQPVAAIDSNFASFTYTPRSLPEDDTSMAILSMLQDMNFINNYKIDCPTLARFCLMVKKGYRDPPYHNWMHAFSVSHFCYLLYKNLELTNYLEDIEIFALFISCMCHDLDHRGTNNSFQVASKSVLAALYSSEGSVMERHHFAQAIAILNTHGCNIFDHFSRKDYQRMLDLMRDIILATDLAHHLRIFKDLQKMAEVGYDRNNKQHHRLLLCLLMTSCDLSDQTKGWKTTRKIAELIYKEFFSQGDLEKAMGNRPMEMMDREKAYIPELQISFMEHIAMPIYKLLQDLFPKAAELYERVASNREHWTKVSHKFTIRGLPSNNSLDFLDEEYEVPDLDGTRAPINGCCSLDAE

| SMILES | Ki (human PDE2A1; [1]) | Ki (Rhesus PDE2A3; [2]) | Ki (human PDE2A1; [3]) | Ki (Rhesus PDE2A3; [4]) |
| --- | --- | --- | --- | --- |
| CC[C@@H](NC(=O)c1cc(=O)[nH]c(-c2ncccn2)n1)c1ccc(OC(F)(F)F)cc1 [Example 106, 6-oxo-N-{(1R)-1-[4-(trifluoromethoxy)phenyl]propyl}-1,6-dihydro-2,2′-bipyrimidine-4-carboxamide] | 5.6 nM | 12 nM | – | – |
| C[C@@H](NC(=O)c1cc(=O)[nH]c(-c2ncccn2)n1)c1cc(F)c(C(F)(F)F)c(F)c1 [Example 108, N-{(1R)-1-[3,5-difluoro-4-(trifluoromethyl)phenyl]ethyl}-6-oxo-1,6-dihydro-2,2′-bipyrimidine-4-carboxamide] | ~9.2 nM | 25 nM | 39 nM | 33 nM |
| C[C@@H](NC(=O)c1cc(=O)[nH]c(-c2ncccn2)n1)c1ccc(S(F)(F)(F)(F)F)cc1 [Example 111, 6-oxo-N-{(1R)-1-[4-(pentafluoro-λ^6-sulfanyl)phenyl]ethyl}-1,6-dihydro-2,2′-bipyrimidine-4-carboxamide] | – | 3.6 nM | 4.7 nM | 3.9 nM |
| COCc1nc(C(=O)N[C@@H](c2ccc(OC(F)(F)F)cc2)C2CC2)cc(=O)[nH]1 [Example 116, N-{(R)-cyclopropyl[4-(trifluoromethoxy)phenyl]methyl}-2-(methoxymethyl)-6-oxo-1,6-dihydropyrimidine-4-carboxamide] | 16 nM | 70 nM | – | – |
| COCc1nc(C(=O)N[C@@H](c2ccc(SC(F)(F)F)cc2)C(C)C)cc(=O)[nH]1 [Example 120, 2-(methoxymethyl)-N-[(1R)-2-methyl-1-{4-[(trifluoromethyl)sulfanyl]phenyl}propyl]-6-oxo-1,6-dihydropyrimidine-4-carboxamide] | 4.2 nM | 8.7 nM | – | – |
| CC[C@@H](NC(=O)c1cc(=O)[nH]c(COC)n1)c1ccc(SC(F)(F)F)cc1 [Example 121, 2-(methoxymethyl)-6-oxo-N-[(1R)-1-{4-[(trifluoromethyl)sulfanyl]phenyl}propyl]-1,6-dihydropyrimidine-4-carboxamide] | ~6.2 nM | 25 nM | – | 29 nM |
| COCc1nc(C(=O)N[C@H](C)c2ccc(C(C)C)cc2)cc(=O)[nH]1 [Example 122, 2-(methoxymethyl)-N-{(1R)-1-[4-(1-methylethyl)phenyl]ethyl}-6-oxo-1,6-dihydropyrimidine-4-carboxamide] | 38 nM | 152 nM | – | – |
| COCc1nc(C(=O)N[C@H](C)c2ccc(SC(F)(F)F)cc2)cc(=O)[nH]1 [Example 123, 2-(methoxymethyl)-6-oxo-N-[(1R)-1-{4-[(trifluoromethyl)sulfanyl]phenyl}ethyl]-1,6-dihydropyrimidine-4-carboxamide] | ~8.2 nM | 39 nM | – | 31 nM |
| COCc1nc(C(=O)N[C@H](C)c2ccc(C(F)(F)F)c(F)c2)cc(=O)[nH]1 [Example 125, N-{(1R)-1-[3-fluoro-4-(trifluoromethyl)phenyl]ethyl}-2-(methoxymethyl)-6-oxo-1,6-dihydropyrimidine-4-carboxamide] | 45 nM | 176 nM | – | – |
| CC(C)[C@@H](NC(=O)c1cc(=O)[nH]c(-c2ccccc2)n1)c1ccc(OC(F)(F)F)c(F)c1 [Example 127, N-{(1R)-1-[3-fluoro-4-(trifluoromethoxy)phenyl]-2-methylpropyl}-6-oxo-2-phenyl-1,6-dihydropyrimidine-4-carboxamide] | 2.2 nM | 3.6 nM | 3.9 nM | 4.7 nM |
| CC(C)[C@@H](NC(=O)c1cc(=O)[nH]c(C2CC2)n1)c1ccc(OC(F)(F)F)c(F)c1 [Example 128, 2-cyclopropyl-N-{(1R)-1-[3-fluoro-4-(trifluoromethoxy)phenyl]-2-methylpropyl}-6-oxo-1,6-dihydropyrimidine-4-carboxamide] | 1.2 nM | 2 nM | – | – |
| Cc1nc(C(=O)NC2(c3ccc(SC(F)(F)F)c(F)c3)CCC2)cc(=O)[nH]1 [Example 129, N-(1-{3-fluoro-4-[(trifluoromethyl)sulfanyl]phenyl}cyclobutyl)-2-methyl-6-oxo-1,6-dihydropyrimidine-4-carboxamide] | 184 nM | 218 nM | – | – |
| CSCC(NC(=O)c1cc(=O)[nH]c(C)n1)c1ccc(C(F)(F)F)cc1 (stereo not shown) [Example 131, 2-methyl-N-{2-(methylsulfanyl)-1-[4-(trifluoromethyl)phenyl]ethyl}-6-oxo-1,6-dihydropyrimidine-4-carboxamide] | 123 nM | 170 nM | – | – |

Continued by falling Ki (Rhesus PDE2A3; [2]), values first:

| Ki (human PDE2A1; [1]) | Ki (Rhesus PDE2A3; [2]) | Ki (human PDE2A1; [3]) | Ki (Rhesus PDE2A3; [4]) | SMILES |
| --- | --- | --- | --- | --- |
| 16 nM | 84 nM | – | – | COCc1nc(C(=O)N[C@H](C)c2ccc(OC(F)(F)F)cc2)cc(=O)[nH]1 [Example 113, 2-(methoxymethyl)-6-oxo-N-{(1R)-1-[4-(trifluoromethoxy)phenyl]ethyl}-1,6-dihydropyrimidine-4-carboxamide] |
| ~13 nM | 80 nM | 42 nM | – | COCc1nc(C(=O)N[C@@H](c2ccc(OC(F)(F)F)c(F)c2)C2CC2)cc(=O)[nH]1 [Example 117, N-{(R)-cyclopropyl[3-fluoro-4-(trifluoromethoxy)phenyl]methyl}-2-(methoxymethyl)-6-oxo-1,6-dihydropyrimidine-4-carboxamide] |
| 18 nM | 76 nM | – | – | COCc1nc(C(=O)N[C@@H](c2ccc(C(F)(F)F)cc2)C2CC2)cc(=O)[nH]1 [Example 118, N-{(R)-cyclopropyl[4-(trifluoromethyl)phenyl]methyl}-2-(methoxymethyl)-6-oxo-1,6-dihydropyrimidine-4-carboxamide] |
| 17 nM | 74 nM | – | 53 nM | CC[C@@H](NC(=O)c1cc(=O)[nH]c(COC)n1)c1ccc(OC(F)(F)F)cc1 [Example 119, 2-(methoxymethyl)-6-oxo-N-{(1R)-1-[4-(trifluoromethoxy)phenyl]propyl}-1,6-dihydropyrimidine-4-carboxamide] |
| 15 nM | 73 nM | – | – | COCc1nc(C(=O)N[C@@H](c2ccc(C(F)(F)F)c(F)c2)C2CC2)cc(=O)[nH]1 [Example 115, N-{(R)-cyclopropyl[3-fluoro-4-(trifluoromethyl)phenyl]methyl}-2-(methoxymethyl)-6-oxo-1,6-dihydropyrimidine-4-carboxamide] |
| ~11 nM | 48 nM | – | – | CC[C@@H](NC(=O)c1cc(=O)[nH]c(COC)n1)c1ccc(OC(F)(F)F)c(F)c1 [Example 114, N-{(1R)-1-[3-fluoro-4-(trifluoromethoxy)phenyl]propyl}-2-(methoxymethyl)-6-oxo-1,6-dihydropyrimidine-4-carboxamide] |
| ~11 nM | 48 nM | 64 nM | 61 nM | COCc1nc(C(=O)N[C@H](C)c2ccc(OC(F)(F)F)c(F)c2)cc(=O)[nH]1 [Example 126, N-{(1R)-1-[3-fluoro-4-(trifluoromethoxy)phenyl]-ethyl}-2-(methoxymethyl)-6-oxo-1,6-dihydropyrimidine-4-carboxamide] |
| 24 nM | 34 nM | – | – | C[C@@H](NC(=O)c1cc(=O)[nH]c(Cc2ccc(F)cc2)n1)c1ccc(C(F)(F)F)cc1 [Example 132, 2-(4-fluorobenzyl)-6-oxo-N-{(1R)-1-[4-(trifluoromethyl)phenyl]ethyl}-1,6-dihydropyrimidine-4-carboxamide] |
| 7.2 nM | 12 nM | – | – | C[C@@H](NC(=O)c1cc(=O)[nH]c(-c2ncccn2)n1)c1ccc(C(F)(F)F)c(Cl)c1 [Example 110, N-{(1R)-1-[3-chloro-4-(trifluoromethyl)phenyl]ethyl}-6-pxo-1,6-dihydro-2,2′-bipyrimidine-4-carboxamide] |
